From patent publication US20250312462A1, “PAK1 DEGRADERS AND METHODS OF USE THEREOF” (INSTITUTE FOR CANCER RESEARCH D/B/A THE RESEARCH INSTITUTE …, priority 2022, published 2025)

Tests used:
PAK1 = PAK1 (Homo sapiens, UniProt Q13153); experiment: Global multiplexed mass spectrometry proteomics in MOLT4 cells; type: cell-based; design: endogenous in cells; host or cells: MOLT4; details: 1 μM, 5 hours
Protocol: MOLT4 cells were treated with DMSO in biological triplicate and 1 μM BJG-05-039 for 5 hours and harvested by centrifugation. Cell lysis was performed by the addition of Urea buffer (8 M Urea, 50 mM NaCl, 50 mM 4-(2-hydroxyethyl)-1-piperazineethanesulfonic acid (EPPS) pH 8.5, Protease and Phosphatase inhibitors) followed by manual homogenization by 20 passes through a 21-gauge (1.25 in. long) needle. Lysate was clarified by centrifugation at 4° C. and protein quantified using bradford (Bio-Rad) assay. 100 μg of protein for each sample was reduced, alkylated and precipitated using methanol/chloroform as described (Donovan, et al. (2018) Elife 7: e38430). The resulting precipitated protein was resuspended in 4 M Urea, 50 mM HEPES pH 7.4, buffer for solubilization, followed by dilution to 1 M urea with the addition of 200 mM EPPS, pH 8. Proteins were digested for 12 hours at room temperature with LysC (1:50 ratio), followed by dilution to 0.5 M urea and a second digestion step was performed by addition of trypsin (1:50 ratio) for 6 hours at 37° C. […]
Quantification was performed using a MS3-based TMT method as described (Donovan et al. (2020) Cell 183(6):1714-1731). […]
Proteome Discoverer 2.4 (Thermo Fisher Scientific) was used for .RAW file processing and controlling peptide and protein level false discovery rates, assembling proteins from peptides, and protein quantification from peptides. […]

MAP3K3 = MAP3K3 (Homo sapiens, UniProt Q99759); experiment: KINOMEscan; details: read-out: Percent Control
Protocol: (§1) The kinase engagement assay (KINOMEscan®) was performed by DiscoverX assessing binding abilities toward a set of kinases.

EPHB4 = EPHB4 (Homo sapiens, UniProt P54760); experiment: KINOMEscan; details: read-out: Percent Control
Protocol: as §1

CDK4-cyclinD1 = CDK4-cyclinD1 (Homo sapiens, UniProt P11802); experiment: KINOMEscan; details: read-out: Percent Control
Sequence of CDK4-cyclinD1 (P11802 whole entry): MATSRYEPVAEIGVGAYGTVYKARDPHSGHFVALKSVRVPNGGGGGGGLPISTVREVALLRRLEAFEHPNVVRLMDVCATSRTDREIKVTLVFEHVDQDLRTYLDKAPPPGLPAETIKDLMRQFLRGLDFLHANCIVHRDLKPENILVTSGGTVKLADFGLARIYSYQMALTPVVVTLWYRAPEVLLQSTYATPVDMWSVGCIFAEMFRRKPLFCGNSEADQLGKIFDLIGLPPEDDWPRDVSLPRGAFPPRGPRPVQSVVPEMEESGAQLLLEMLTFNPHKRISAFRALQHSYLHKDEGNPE
Sequence of CDK4-cyclinD1 (P24385 whole entry partner): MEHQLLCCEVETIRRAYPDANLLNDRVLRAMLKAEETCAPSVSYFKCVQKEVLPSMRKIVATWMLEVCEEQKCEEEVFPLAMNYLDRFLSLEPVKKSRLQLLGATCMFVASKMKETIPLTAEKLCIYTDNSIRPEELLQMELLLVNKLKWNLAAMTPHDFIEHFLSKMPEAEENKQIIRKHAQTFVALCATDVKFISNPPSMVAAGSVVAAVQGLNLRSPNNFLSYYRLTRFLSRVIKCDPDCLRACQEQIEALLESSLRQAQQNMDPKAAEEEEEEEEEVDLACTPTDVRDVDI
Protocol: as §1

PKAC-alpha = PKAC-alpha (Homo sapiens, UniProt P17612); experiment: KINOMEscan; details: read-out: Percent Control
Protocol: as §1

CAMK2D = CAMK2D (Homo sapiens, UniProt Q13557); experiment: KINOMEscan; details: read-out: Percent Control
Protocol: as §1

EPHB6 = EPHB6 (Homo sapiens, UniProt O15197); experiment: KINOMEscan; details: read-out: Percent Control
Sequence of EPHB6 (O15197 32-1021): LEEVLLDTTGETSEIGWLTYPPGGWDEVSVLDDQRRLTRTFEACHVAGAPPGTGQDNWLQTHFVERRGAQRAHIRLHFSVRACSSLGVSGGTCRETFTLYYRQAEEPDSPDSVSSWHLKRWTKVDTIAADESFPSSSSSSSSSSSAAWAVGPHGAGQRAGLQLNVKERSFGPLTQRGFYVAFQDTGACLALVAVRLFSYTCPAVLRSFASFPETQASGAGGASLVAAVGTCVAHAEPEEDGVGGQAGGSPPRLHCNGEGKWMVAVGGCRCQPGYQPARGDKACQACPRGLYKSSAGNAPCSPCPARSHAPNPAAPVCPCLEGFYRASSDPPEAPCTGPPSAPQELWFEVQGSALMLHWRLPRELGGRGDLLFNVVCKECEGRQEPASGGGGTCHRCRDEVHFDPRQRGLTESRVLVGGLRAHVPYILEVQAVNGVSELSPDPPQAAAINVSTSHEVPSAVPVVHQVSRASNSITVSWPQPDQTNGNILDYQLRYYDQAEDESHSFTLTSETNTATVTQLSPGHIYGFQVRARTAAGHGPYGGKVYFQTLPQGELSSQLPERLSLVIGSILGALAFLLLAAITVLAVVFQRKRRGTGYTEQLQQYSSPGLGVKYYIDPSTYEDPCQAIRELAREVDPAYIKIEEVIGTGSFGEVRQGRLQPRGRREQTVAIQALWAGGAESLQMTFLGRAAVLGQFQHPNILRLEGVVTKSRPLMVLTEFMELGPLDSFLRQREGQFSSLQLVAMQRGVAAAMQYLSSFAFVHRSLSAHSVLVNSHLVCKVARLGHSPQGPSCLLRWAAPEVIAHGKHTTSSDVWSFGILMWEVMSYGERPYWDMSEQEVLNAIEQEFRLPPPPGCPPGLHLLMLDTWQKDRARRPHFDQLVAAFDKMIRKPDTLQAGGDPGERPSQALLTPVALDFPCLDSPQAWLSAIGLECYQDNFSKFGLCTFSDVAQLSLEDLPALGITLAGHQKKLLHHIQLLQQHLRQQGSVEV
Protocol: as §1

CSNK1A1 = CSNK1A1 (Homo sapiens, UniProt P48729); experiment: KINOMEscan; details: read-out: Percent Control
Sequence of CSNK1A1 (P48729 whole entry): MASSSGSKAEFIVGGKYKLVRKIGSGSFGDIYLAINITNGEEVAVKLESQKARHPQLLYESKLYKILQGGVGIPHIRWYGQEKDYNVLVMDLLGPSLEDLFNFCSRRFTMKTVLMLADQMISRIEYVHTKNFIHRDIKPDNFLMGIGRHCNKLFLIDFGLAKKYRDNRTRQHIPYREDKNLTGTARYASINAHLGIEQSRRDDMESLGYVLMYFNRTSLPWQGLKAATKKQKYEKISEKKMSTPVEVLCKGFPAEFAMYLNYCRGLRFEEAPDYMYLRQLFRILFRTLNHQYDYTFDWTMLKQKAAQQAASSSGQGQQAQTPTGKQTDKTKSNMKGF
Protocol: as §1

AKT3 = AKT3 (Homo sapiens, UniProt Q9Y243); experiment: KINOMEscan; details: read-out: Percent Control
Protocol: as §1

BMPR1A = BMPR1A (Homo sapiens, UniProt P36894); experiment: KINOMEscan; details: read-out: Percent Control
Sequence of BMPR1A (P36894 24-532): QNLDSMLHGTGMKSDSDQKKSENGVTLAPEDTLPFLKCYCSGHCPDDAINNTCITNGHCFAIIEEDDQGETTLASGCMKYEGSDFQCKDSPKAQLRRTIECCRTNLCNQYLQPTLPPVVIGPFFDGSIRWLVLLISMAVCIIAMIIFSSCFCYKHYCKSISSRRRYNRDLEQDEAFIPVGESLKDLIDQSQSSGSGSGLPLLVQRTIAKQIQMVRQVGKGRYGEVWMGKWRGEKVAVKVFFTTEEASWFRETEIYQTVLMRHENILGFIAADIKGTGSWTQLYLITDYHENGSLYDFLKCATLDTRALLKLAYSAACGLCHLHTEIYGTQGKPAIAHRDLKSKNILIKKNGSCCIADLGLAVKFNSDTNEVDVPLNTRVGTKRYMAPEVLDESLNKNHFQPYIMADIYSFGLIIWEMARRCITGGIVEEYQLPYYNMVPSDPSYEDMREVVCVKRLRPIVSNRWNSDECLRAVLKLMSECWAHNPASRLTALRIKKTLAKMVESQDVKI
Protocol: as §1

CDK2 = CDK2 (Homo sapiens, UniProt P24941); experiment: KINOMEscan; details: read-out: Percent Control
Protocol: as §1

EGFR(E746-A750del) = EGFR(E746-A750del) (Homo sapiens, UniProt P00533, DEL746-750); experiment: KINOMEscan; details: read-out: Percent Control
Protocol: as §1

PIK3CA(I800L) = PIK3CA(I800L) (Homo sapiens, UniProt P42336, I800L); experiment: KINOMEscan; details: read-out: Percent Control
Protocol: as §1

DAPK3 = DAPK3 (Homo sapiens, UniProt O43293); experiment: KINOMEscan; details: read-out: Percent Control
Sequence of DAPK3 (O43293 whole entry): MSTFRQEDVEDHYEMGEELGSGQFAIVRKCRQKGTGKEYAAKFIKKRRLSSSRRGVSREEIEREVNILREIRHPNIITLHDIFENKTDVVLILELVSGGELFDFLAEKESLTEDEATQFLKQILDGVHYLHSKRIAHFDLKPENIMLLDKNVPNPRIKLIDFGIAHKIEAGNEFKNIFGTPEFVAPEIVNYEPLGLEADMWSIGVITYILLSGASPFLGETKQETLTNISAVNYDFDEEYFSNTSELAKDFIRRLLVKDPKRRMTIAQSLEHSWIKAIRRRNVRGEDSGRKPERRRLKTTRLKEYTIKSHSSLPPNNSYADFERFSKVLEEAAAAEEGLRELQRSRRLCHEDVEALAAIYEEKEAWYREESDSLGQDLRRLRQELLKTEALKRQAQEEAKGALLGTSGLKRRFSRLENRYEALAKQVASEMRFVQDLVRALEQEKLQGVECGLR
Protocol: as §1

PFTK1 = PFTK1 (Homo sapiens, UniProt O94921); experiment: KINOMEscan; details: read-out: Percent Control
Sequence of PFTK1 (O94921 whole entry): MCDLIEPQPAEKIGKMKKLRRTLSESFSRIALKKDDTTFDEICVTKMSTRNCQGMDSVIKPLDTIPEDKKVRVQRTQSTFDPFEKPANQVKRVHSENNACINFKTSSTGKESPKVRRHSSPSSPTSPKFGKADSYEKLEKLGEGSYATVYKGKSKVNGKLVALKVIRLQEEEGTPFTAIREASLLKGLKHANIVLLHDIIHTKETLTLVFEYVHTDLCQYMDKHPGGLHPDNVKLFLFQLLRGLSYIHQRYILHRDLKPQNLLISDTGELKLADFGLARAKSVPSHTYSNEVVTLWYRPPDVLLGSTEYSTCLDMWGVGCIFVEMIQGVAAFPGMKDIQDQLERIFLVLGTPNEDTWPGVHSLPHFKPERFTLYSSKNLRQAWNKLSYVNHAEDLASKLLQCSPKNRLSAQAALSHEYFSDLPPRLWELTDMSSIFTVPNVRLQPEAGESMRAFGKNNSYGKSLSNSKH
Protocol: as §1

LATS2 = LATS2 (Homo sapiens, UniProt Q9NRM7); experiment: KINOMEscan; details: read-out: Percent Control
Sequence of LATS2 (Q9NRM7 whole entry): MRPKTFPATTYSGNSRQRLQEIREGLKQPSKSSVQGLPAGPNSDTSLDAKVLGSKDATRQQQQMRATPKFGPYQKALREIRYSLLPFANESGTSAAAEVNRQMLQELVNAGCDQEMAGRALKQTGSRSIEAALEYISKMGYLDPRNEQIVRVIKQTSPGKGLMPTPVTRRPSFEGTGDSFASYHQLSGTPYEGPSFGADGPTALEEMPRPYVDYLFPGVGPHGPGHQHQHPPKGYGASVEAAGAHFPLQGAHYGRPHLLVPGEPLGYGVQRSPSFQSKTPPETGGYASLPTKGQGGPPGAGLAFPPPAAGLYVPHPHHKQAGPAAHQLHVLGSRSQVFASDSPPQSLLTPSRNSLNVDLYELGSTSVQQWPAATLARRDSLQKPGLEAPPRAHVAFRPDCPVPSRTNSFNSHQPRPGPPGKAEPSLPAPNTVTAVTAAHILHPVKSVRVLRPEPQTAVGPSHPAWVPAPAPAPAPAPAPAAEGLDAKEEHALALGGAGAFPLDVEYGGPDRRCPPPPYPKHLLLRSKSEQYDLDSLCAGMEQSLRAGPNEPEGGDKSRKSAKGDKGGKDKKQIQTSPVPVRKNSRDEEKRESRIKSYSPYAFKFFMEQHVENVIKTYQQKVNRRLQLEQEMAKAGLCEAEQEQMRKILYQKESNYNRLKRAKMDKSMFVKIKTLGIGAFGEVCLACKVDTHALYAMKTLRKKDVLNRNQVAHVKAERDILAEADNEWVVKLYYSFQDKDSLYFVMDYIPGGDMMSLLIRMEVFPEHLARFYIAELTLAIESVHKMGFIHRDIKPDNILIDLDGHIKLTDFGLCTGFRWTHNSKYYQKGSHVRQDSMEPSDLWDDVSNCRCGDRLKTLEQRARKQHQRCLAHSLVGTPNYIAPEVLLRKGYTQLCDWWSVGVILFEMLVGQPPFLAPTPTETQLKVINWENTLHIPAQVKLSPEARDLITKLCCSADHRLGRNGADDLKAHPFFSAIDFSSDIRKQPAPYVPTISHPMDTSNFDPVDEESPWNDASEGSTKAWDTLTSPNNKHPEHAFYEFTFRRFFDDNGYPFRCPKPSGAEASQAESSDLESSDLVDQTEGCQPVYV
Protocol: as §1

PIK3CA(E545K) = PIK3CA(E545K) (Homo sapiens, UniProt P42336, E545K); experiment: KINOMEscan; details: read-out: Percent Control
Protocol: as §1

Sequence of PAK1 (Q13153 whole entry): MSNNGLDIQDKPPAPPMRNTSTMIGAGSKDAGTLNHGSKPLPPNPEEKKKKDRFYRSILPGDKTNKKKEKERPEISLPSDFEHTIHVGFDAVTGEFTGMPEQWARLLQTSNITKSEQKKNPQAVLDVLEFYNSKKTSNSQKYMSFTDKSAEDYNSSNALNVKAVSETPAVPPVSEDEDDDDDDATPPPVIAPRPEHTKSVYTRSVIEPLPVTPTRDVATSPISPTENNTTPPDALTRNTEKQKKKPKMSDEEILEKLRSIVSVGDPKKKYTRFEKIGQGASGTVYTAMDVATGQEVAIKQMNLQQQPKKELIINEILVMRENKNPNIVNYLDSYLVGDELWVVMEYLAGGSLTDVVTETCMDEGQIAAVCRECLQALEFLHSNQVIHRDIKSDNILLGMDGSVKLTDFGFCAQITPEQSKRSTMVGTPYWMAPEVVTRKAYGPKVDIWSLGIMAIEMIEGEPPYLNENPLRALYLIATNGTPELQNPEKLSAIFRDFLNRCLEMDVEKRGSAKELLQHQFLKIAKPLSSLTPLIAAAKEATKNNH

With `O=C1CCC(N2C(=O)c3cccc(NCCCCCCCCNC(=O)N4CC[C@H](NC5=Nc6cc(F)ccc6N(CC(F)F)c6ccc(Cl)cc65)C4)c3C2=O)C(=O)N1` (stereo partly drawn) [BJG-05-039, (3S)-3-((2-Chloro-5-(2,2-difluoroethyl)-8-fluoro-5H-dibenzo[b,e][1,4]diazepin-11-yl)amino)-N-(8-((2-(2,6-dioxopiperidin-3-yl)-1,3-dioxoisoindolin-4-yl)amino)octyl)pyrrolidine-1-carboxamide] the “Change in protein abundance” value (PAK1) was “significant downregulation of this kinase was not apparent”, the remaining binding at 10 µM (MAP3K3) was 100% and the remaining binding at 10 µM (EPHB4) was 91%. It also gave a remaining binding at 10 µM (CDK4-cyclinD1) of 90%, a remaining binding at 10 µM (PKAC-alpha) of 90% and a remaining binding at 10 µM (CAMK2D) of 45%. It also gave a remaining binding at 10 µM (EPHB6) of 97%, a remaining binding at 10 µM (CSNK1A1) of 93% and a remaining binding at 10 µM (AKT3) of 57%. For the same compound, the remaining binding at 10 µM (BMPR1A) was 98%, the remaining binding at 10 µM (CDK2) was 69% and the remaining binding at 10 µM (EGFR(E746-A750del)) was 100%. For the same compound, the remaining binding at 10 µM (PIK3CA(I800L)) was 100%, the remaining binding at 10 µM (DAPK3) was 40% and the remaining binding at 10 µM (PFTK1) was 88%. It also gave a remaining binding at 10 µM (LATS2) of 100% and a remaining binding at 10 µM (PIK3CA(E545K)) of 100%.
